One experiment concerns T47D xenograft. As to the kind of experiment: T47D tumor xenograft study. The class given is in vivo, nude mice. On the procedure: Due to the strong cell growth inhibition potency of SY-707, we firstly evaluate its in vivo anti-cancer activity in T47D xenograft model mice. In this model, mice were orally administered twice a day with vehicle or SY-707 at dose of 100, 50 or 25 mg/kg after tumor size reached 150–300 mm ^3.
Next, we evaluated the combination effects of SY-707 and paclitaxel (an approved drug for breast cancer therapy) in T47D xenograft model. Mice bearing T47D breast cancer were divided randomly into 4 groups: vehicle, SY-707 (100 mg/kg/day), paclitaxel (10 mg/kg/week), and SY-707 plus paclitaxel groups.

In experiment [1] the test system is 4T1 breast cancer metastasis to the lung. As to the kind of experiment: Metastasis analysis in vivo (lung nodules, 4T1 model). Also on record: species or system nude mice. The note with it: 4T1, treatment alone: SY-707 100 mg/kg/day PO; paclitaxel 10 or 20 mg/kg/week IV; 20 days; not statistically different.
Description: Metastasis was detected in mouse lungs after the mice were sacrificed at the last dosing day. The lungs of each mouse were excised immediately and fixed with 4% paraformaldehyde for 24 h, then the lungs were photographed (three photographs per section per mouse) and the metastatic nodules in the lungs were manually counted and the data was analyzed for compound evaluation.
Mice were inoculated with 4T1 cells in PBS at right and left flanks expect the normal control group ( Figure 6A), SY-707 with or without paclitaxel was administered for 20 days when tumor volumes reached 150–300 mm ^3. The mice were sacrificed on the last day of drug administration, then the lungs were collected and metastatic nodules were counted manually for the evaluation of metastasis of 4T1 breast cancer.
The normal group (A) and the vehicle group which treatment with 20% SBE (B) were control. Mouse lungs were taken at the last day of treatment and fixed with 4% paraformaldehyde for 24 h, then the lungs were photographed and the metastatic nodules were counted manually for further analysis. *P<0.05, **P<0.01.
For another experiment, the system named is MCF-7 cells. As to the kind of experiment: Would healing (migration) assay. The class given is cell-based. The settings on record: MCF-7, 24 h, vs control. The method, then:
(§1) Totally, 5×10 ^5 cells were plated into each well of 6-well plates, and cultured to 70%–80% confluence, then the cell monolayer was gently and slowly scratched with a new 1-mL pipette tip across the center of the well. After scratching, the wells were gently washed with PBS twice to remove the detached cells, and replenished with fresh medium containing indicated concentration of compounds. The treated cells were allowed to grow for additional 24 h, and images were capturedunder a microscope. The migration distance were calculated and analyzed to evaluate the effects of compounds.

In another experiment the test system is T47D cells. As to the kind of experiment: Would healing (migration) assay. The class given is cell-based. The settings on record: 24 h, vs control. On the procedure: as §1

SMILES strings stand for the structures.

Take `CC(=O)O[C@H]1C(=O)[C@@]2(C)[C@H]([C@H](OC(=O)c3ccccc3)[C@]3(O)C[C@H](OC(=O)[C@H](O)[C@@H](NC(=O)c4ccccc4)c4ccccc4)C(C)=C1C3(C)C)[C@]1(OC(C)=O)CO[C@@H]1C[C@@H]2O` [paclitaxel, reference compound]: in the experiment on T47D xenograft (combination study, paclitaxel 10 mg/kg/week alone, 24 days, P<0.05), the “tumor growth inhibition rate” value is recorded as 24%. In experiment [1], the “number of metastatic nodules in the lungs vs vehicle group” value is on record as “reduced the number of metastatic nodules”.
`CN(c1ncccc1CNc1nc(Nc2ccc3c(c2)CC(=O)N3)ncc1C(F)(F)F)S(C)(=O)=O` [PF-562271, reference compound]: the migration distance entry in the experiment with MCF-7 cells and in the experiment on T47D cells was “significant reduction of migration” throughout. In addition, the “tumor growth inhibition rate” value in the experiment with T47D xenograft (reference compound group, 21 days, dose not given) was found to be 20%.

The record behind these values is paper PMC9909315, “SY-707, an ALK/FAK/IGF1R inhibitor, suppresses growth and metastasis of breast cancer cells” (Acta Biochimica et Biophysica Sinica, 2022).
